This is an account of results in PubChem BioAssay AID1963837 (Molecular Pharmacology Branch, DTP, NCI, 2024).
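Also: spheroids exposed to drugs for seven days before readout.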

One test concerns 843126-344-R-J1-PDC complex spheroid viability. Put plainly: Anticancer human tumor 843126-344-R-J1-PDC patient-derived melanoma cell line growth inhibition [POLQ]. The following applies: second compound 3.16 µM; first compound 0.1 µM; hits give low values. The gist of the method:
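Three-cell-type spheroids modelling solid tumor plus stroma served as the readout system; POL inhibitors were tested individually and in combination, concentration ranges set by clinical Cmax where known.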
For orientation: viability, T/C means the ratio of treated to control. Consider `CCc1cc2c(N3CCc4c(cc(Cn5ccnc5)cc4-c4cn(C)nc4C(F)(F)F)C3=O)ccnc2c(OC)n1` + Cc1cccc(N(C)C(=O)C2C(O)CCN2c2nc(C)cc(C(F)(F)F)c2C#N)c1, for which the viability, T/C is 84.8%.
Still for that read-out and setting: the result for `COc1cc2cc(C(=O)CCC(=O)O)sc2cc1OC` + Cc1cccc(N(C)C(=O)C2C(O)CCN2c2nc(C)cc(C(F)(F)F)c2C#N)c1 reads 83%.

Staying with this test, now noted: second compound 3.16 µM; first compound 0.316 µM; hits give low values.
On to `C=CC(=O)N1CCN(c2nc(=O)n(-c3c(C)ccnc3C(C)C)c3nc(-c4c(O)cccc4F)c(F)cc23)C(C)C1` (configuration not stated) + Cc1cccc(N(C)C(=O)C2C(O)CCN2c2nc(C)cc(C(F)(F)F)c2C#N)c1, for which the viability, T/C was 104%.
Regarding `CCc1cc2c(N3CCc4c(cc(Cn5ccnc5)cc4-c4cn(C)nc4C(F)(F)F)C3=O)cc(C)nc2c(OC)n1` + Cc1cccc(N(C)C(=O)C2C(O)CCN2c2nc(C)cc(C(F)(F)F)c2C#N)c1, the viability, T/C was 87.7%.
The same measure, in the same setting: then `CCc1cc2c(N3CCc4c(cc(Cn5ccnc5)cc4-c4cn(C)nc4C(F)(F)F)C3=O)ccnc2c(OC)n1` + Cc1cccc(N(C)C(=O)C2C(O)CCN2c2nc(C)cc(C(F)(F)F)c2C#N)c1, with 79.3%; and `COc1cc2cc(C(=O)CCC(=O)O)sc2cc1OC` + Cc1cccc(N(C)C(=O)C2C(O)CCN2c2nc(C)cc(C(F)(F)F)c2C#N)c1, with 98.5%.

Still in this test, the particulars now being: second compound 3.16 µM; first compound 1 µM; hits give low values.
For `C=CC(=O)N1CCN(c2nc(=O)n(-c3c(C)ccnc3C(C)C)c3nc(-c4c(O)cccc4F)c(F)cc23)C(C)C1` (configuration not stated) + Cc1cccc(N(C)C(=O)C2C(O)CCN2c2nc(C)cc(C(F)(F)F)c2C#N)c1, the viability, T/C is 91.5%.
The same measure, in the same setting: the result for `CCc1cc2c(N3CCc4c(cc(Cn5ccnc5)cc4-c4cn(C)nc4C(F)(F)F)C3=O)cc(C)nc2c(OC)n1` + Cc1cccc(N(C)C(=O)C2C(O)CCN2c2nc(C)cc(C(F)(F)F)c2C#N)c1 reads 70.9%; that for `CCc1cc2c(N3CCc4c(cc(Cn5ccnc5)cc4-c4cn(C)nc4C(F)(F)F)C3=O)ccnc2c(OC)n1` + Cc1cccc(N(C)C(=O)C2C(O)CCN2c2nc(C)cc(C(F)(F)F)c2C#N)c1, 72.4%.
The same measure, in the same setting: then `COc1cc2cc(C(=O)CCC(=O)O)sc2cc1OC` + Cc1cccc(N(C)C(=O)C2C(O)CCN2c2nc(C)cc(C(F)(F)F)c2C#N)c1, with 98.4%.

The same test, now with this note: second compound 3.16 µM; first compound 3.16 µM; hits give low values.
`C=CC(=O)N1CCN(c2nc(=O)n(-c3c(C)ccnc3C(C)C)c3nc(-c4c(O)cccc4F)c(F)cc23)C(C)C1` (configuration not stated) + Cc1cccc(N(C)C(=O)C2C(O)CCN2c2nc(C)cc(C(F)(F)F)c2C#N)c1: the viability, T/C is 120%.
The same measure, in the same setting: then `CCc1cc2c(N3CCc4c(cc(Cn5ccnc5)cc4-c4cn(C)nc4C(F)(F)F)C3=O)cc(C)nc2c(OC)n1` + Cc1cccc(N(C)C(=O)C2C(O)CCN2c2nc(C)cc(C(F)(F)F)c2C#N)c1, with 77.8%; and `CCc1cc2c(N3CCc4c(cc(Cn5ccnc5)cc4-c4cn(C)nc4C(F)(F)F)C3=O)ccnc2c(OC)n1` + Cc1cccc(N(C)C(=O)C2C(O)CCN2c2nc(C)cc(C(F)(F)F)c2C#N)c1, with 69.3%; and `COc1cc2cc(C(=O)CCC(=O)O)sc2cc1OC` + Cc1cccc(N(C)C(=O)C2C(O)CCN2c2nc(C)cc(C(F)(F)F)c2C#N)c1, with 96.3%.

The same test, now with this note: second compound 3.16 µM; first compound 10 µM; hits give low values.
Take `C=CC(=O)N1CCN(c2nc(=O)n(-c3c(C)ccnc3C(C)C)c3nc(-c4c(O)cccc4F)c(F)cc23)C(C)C1` (configuration not stated) + Cc1cccc(N(C)C(=O)C2C(O)CCN2c2nc(C)cc(C(F)(F)F)c2C#N)c1: the viability, T/C is 66.8%.
Same read-out and setting: then `CCc1cc2c(N3CCc4c(cc(Cn5ccnc5)cc4-c4cn(C)nc4C(F)(F)F)C3=O)cc(C)nc2c(OC)n1` + Cc1cccc(N(C)C(=O)C2C(O)CCN2c2nc(C)cc(C(F)(F)F)c2C#N)c1, with 56.8%; and `CCc1cc2c(N3CCc4c(cc(Cn5ccnc5)cc4-c4cn(C)nc4C(F)(F)F)C3=O)ccnc2c(OC)n1` + Cc1cccc(N(C)C(=O)C2C(O)CCN2c2nc(C)cc(C(F)(F)F)c2C#N)c1, with 63.1%; and `COc1cc2cc(C(=O)CCC(=O)O)sc2cc1OC` + Cc1cccc(N(C)C(=O)C2C(O)CCN2c2nc(C)cc(C(F)(F)F)c2C#N)c1, with 82.3%.

The same test, now with this note: second compound 10 µM; first compound 0.0316 µM; hits give low values.
On to `C=CC(=O)N1CCN(c2nc(=O)n(-c3c(C)ccnc3C(C)C)c3nc(-c4c(O)cccc4F)c(F)cc23)C(C)C1` (configuration not stated) + Cc1cccc(N(C)C(=O)C2C(O)CCN2c2nc(C)cc(C(F)(F)F)c2C#N)c1, for which the viability, T/C is 77.1%.
The same measure, in the same setting: the result for `CCc1cc2c(N3CCc4c(cc(Cn5ccnc5)cc4-c4cn(C)nc4C(F)(F)F)C3=O)cc(C)nc2c(OC)n1` + Cc1cccc(N(C)C(=O)C2C(O)CCN2c2nc(C)cc(C(F)(F)F)c2C#N)c1 reads 92%.
Regarding `CCc1cc2c(N3CCc4c(cc(Cn5ccnc5)cc4-c4cn(C)nc4C(F)(F)F)C3=O)ccnc2c(OC)n1` + Cc1cccc(N(C)C(=O)C2C(O)CCN2c2nc(C)cc(C(F)(F)F)c2C#N)c1, the viability, T/C was 88.2%.
Regarding `COc1cc2cc(C(=O)CCC(=O)O)sc2cc1OC` + Cc1cccc(N(C)C(=O)C2C(O)CCN2c2nc(C)cc(C(F)(F)F)c2C#N)c1, the viability, T/C was 95.7%.

Still in this test, the particulars now being: second compound 10 µM; first compound 0.1 µM; hits give low values.
Consider `C=CC(=O)N1CCN(c2nc(=O)n(-c3c(C)ccnc3C(C)C)c3nc(-c4c(O)cccc4F)c(F)cc23)C(C)C1` (configuration not stated) + Cc1cccc(N(C)C(=O)C2C(O)CCN2c2nc(C)cc(C(F)(F)F)c2C#N)c1, for which the viability, T/C was 81%.
On the same count and under the same terms, then `CCc1cc2c(N3CCc4c(cc(Cn5ccnc5)cc4-c4cn(C)nc4C(F)(F)F)C3=O)cc(C)nc2c(OC)n1` + Cc1cccc(N(C)C(=O)C2C(O)CCN2c2nc(C)cc(C(F)(F)F)c2C#N)c1, with 79.9%; and `CCc1cc2c(N3CCc4c(cc(Cn5ccnc5)cc4-c4cn(C)nc4C(F)(F)F)C3=O)ccnc2c(OC)n1` + Cc1cccc(N(C)C(=O)C2C(O)CCN2c2nc(C)cc(C(F)(F)F)c2C#N)c1, with 92.2%.
Still for that read-out and setting: then `COc1cc2cc(C(=O)CCC(=O)O)sc2cc1OC` + Cc1cccc(N(C)C(=O)C2C(O)CCN2c2nc(C)cc(C(F)(F)F)c2C#N)c1, with 90.6%.

Still in this test, the particulars now being: second compound 10 µM; first compound 0.316 µM; hits give low values.
For the molecule `C=CC(=O)N1CCN(c2nc(=O)n(-c3c(C)ccnc3C(C)C)c3nc(-c4c(O)cccc4F)c(F)cc23)C(C)C1` (configuration not stated) + Cc1cccc(N(C)C(=O)C2C(O)CCN2c2nc(C)cc(C(F)(F)F)c2C#N)c1, the viability, T/C is 89.2%.
On the same count and under the same terms, the result for `CCc1cc2c(N3CCc4c(cc(Cn5ccnc5)cc4-c4cn(C)nc4C(F)(F)F)C3=O)cc(C)nc2c(OC)n1` + Cc1cccc(N(C)C(=O)C2C(O)CCN2c2nc(C)cc(C(F)(F)F)c2C#N)c1 reads 80%; that for `CCc1cc2c(N3CCc4c(cc(Cn5ccnc5)cc4-c4cn(C)nc4C(F)(F)F)C3=O)ccnc2c(OC)n1` + Cc1cccc(N(C)C(=O)C2C(O)CCN2c2nc(C)cc(C(F)(F)F)c2C#N)c1, 75.5%; that for `COc1cc2cc(C(=O)CCC(=O)O)sc2cc1OC` + Cc1cccc(N(C)C(=O)C2C(O)CCN2c2nc(C)cc(C(F)(F)F)c2C#N)c1, 92.1%.

Still in this test, the particulars now being: second compound 10 µM; first compound 1 µM; hits give low values.
Take `C=CC(=O)N1CCN(c2nc(=O)n(-c3c(C)ccnc3C(C)C)c3nc(-c4c(O)cccc4F)c(F)cc23)C(C)C1` (configuration not stated) + Cc1cccc(N(C)C(=O)C2C(O)CCN2c2nc(C)cc(C(F)(F)F)c2C#N)c1: the viability, T/C was 89.5%.
Still for that read-out and setting: then `CCc1cc2c(N3CCc4c(cc(Cn5ccnc5)cc4-c4cn(C)nc4C(F)(F)F)C3=O)cc(C)nc2c(OC)n1` + Cc1cccc(N(C)C(=O)C2C(O)CCN2c2nc(C)cc(C(F)(F)F)c2C#N)c1, with 74.2%.
The same measure, in the same setting: the result for `CCc1cc2c(N3CCc4c(cc(Cn5ccnc5)cc4-c4cn(C)nc4C(F)(F)F)C3=O)ccnc2c(OC)n1` + Cc1cccc(N(C)C(=O)C2C(O)CCN2c2nc(C)cc(C(F)(F)F)c2C#N)c1 reads 68.8%.
On the same count and under the same terms, the result for `COc1cc2cc(C(=O)CCC(=O)O)sc2cc1OC` + Cc1cccc(N(C)C(=O)C2C(O)CCN2c2nc(C)cc(C(F)(F)F)c2C#N)c1 reads 89.7%.

The test is the same for the next values; noted with them: second compound 10 µM; first compound 3.16 µM; hits give low values.
With `C=CC(=O)N1CCN(c2nc(=O)n(-c3c(C)ccnc3C(C)C)c3nc(-c4c(O)cccc4F)c(F)cc23)C(C)C1` (configuration not stated) + Cc1cccc(N(C)C(=O)C2C(O)CCN2c2nc(C)cc(C(F)(F)F)c2C#N)c1, the viability, T/C is 83.5%.
On to `CCc1cc2c(N3CCc4c(cc(Cn5ccnc5)cc4-c4cn(C)nc4C(F)(F)F)C3=O)cc(C)nc2c(OC)n1` + Cc1cccc(N(C)C(=O)C2C(O)CCN2c2nc(C)cc(C(F)(F)F)c2C#N)c1, for which the viability, T/C was 82.5%.
The same measure, in the same setting: the result for `CCc1cc2c(N3CCc4c(cc(Cn5ccnc5)cc4-c4cn(C)nc4C(F)(F)F)C3=O)ccnc2c(OC)n1` + Cc1cccc(N(C)C(=O)C2C(O)CCN2c2nc(C)cc(C(F)(F)F)c2C#N)c1 reads 70.7%.
Still for that read-out and setting: then `COc1cc2cc(C(=O)CCC(=O)O)sc2cc1OC` + Cc1cccc(N(C)C(=O)C2C(O)CCN2c2nc(C)cc(C(F)(F)F)c2C#N)c1, with 90.9%.

Staying with this test, now noted: second compound 10 µM; first compound 10 µM; hits give low values.
For the molecule `C=CC(=O)N1CCN(c2nc(=O)n(-c3c(C)ccnc3C(C)C)c3nc(-c4c(O)cccc4F)c(F)cc23)C(C)C1` (configuration not stated) + Cc1cccc(N(C)C(=O)C2C(O)CCN2c2nc(C)cc(C(F)(F)F)c2C#N)c1, the viability, T/C is 70.1%.
On to `CCc1cc2c(N3CCc4c(cc(Cn5ccnc5)cc4-c4cn(C)nc4C(F)(F)F)C3=O)cc(C)nc2c(OC)n1` + Cc1cccc(N(C)C(=O)C2C(O)CCN2c2nc(C)cc(C(F)(F)F)c2C#N)c1, for which the viability, T/C was 54.4%.
On to `CCc1cc2c(N3CCc4c(cc(Cn5ccnc5)cc4-c4cn(C)nc4C(F)(F)F)C3=O)ccnc2c(OC)n1` + Cc1cccc(N(C)C(=O)C2C(O)CCN2c2nc(C)cc(C(F)(F)F)c2C#N)c1, for which the viability, T/C is 64.4%.
`COc1cc2cc(C(=O)CCC(=O)O)sc2cc1OC` + Cc1cccc(N(C)C(=O)C2C(O)CCN2c2nc(C)cc(C(F)(F)F)c2C#N)c1: the viability, T/C was 86.1%.
